Data: patent US8399414B2, “Analgesics” (NRL Pharma, Inc., priority 2002, dated 2013)

Assays:
[1] = system: volunteers affected by frozen shoulder; assay: frozen shoulder volunteers, oral enteric coated tablets (Example 11); format: in vivo, human
Protocol: Three male volunteers […], each of who was affected frozen shoulder and could not raise either one of their hands above the shoulder, took orally the enteric coated tablets of lactoferrin from bovine milk (Production Example 4). […] They took lactoferrin in a daily dose of 450 mg in 3 uniformly divided portions after each meal. […] disappeared and was cured in one volunteer on day 7 after the initial administration and in the other volunteers on day 12 and on day 23 after the same, respectively.

male Wistar rats [2] = assay: formalin test, comparison with diclofenac (Example 3); format: in vivo, rat; conditions: i.p. 30 minutes before formalin
Protocol: Male Wistar rats 6 weeks of age were used. The rats in one group were given bovine lactoferrin and those in another group were given a control drug, diclofenac, by intraperitoneal administration 30 minutes before injecting formalin into their foot pads. Their responses to pain are shown in FIG. 5: the phase 1 pain (left) and the phase 2 pain (right).
Lactoferrin and diclofenac were administered intraperitoneally 30 minutes before formalin injection both in the control group (n=4) and the diclofenac group (n=5). The pain inhibiting effect of diclofenac disappeared about 50 minutes after formalin injection, whereas the pain inhibiting effect of lactoferrin lasted long and even 60 minutes after formalin injection.

[3] = system: patients with osteoarthritis; assay: osteoarthritis patients, oral enteric coated tablets (Example 9); format: in vivo, human; conditions: diclofenac in the former, ibuprofen in the latter
Protocol: Lactoferrin extracted from bovine milk was formed into enteric coated tablets (Production Example 4) and given orally to a person whose right knee and right elbow were affected by osteoarthritis associated with the injuries caused by their falling off a bicycle and a person whose knee joints were affected by osteoarthritis associated with obesity. Lactoferrin was administered at a dose of 150 mg (450 mg per day) 3 times a day after each meal.

male Wistar rats [4] = assay: formalin test, intrathecal administration, comparison with morphine (Example 12); format: in vivo; conditions: 30 minutes before formalin, bLF 0.1 to 100 μg/rat, rhLF 100 μg/rat, morphine 10 μg/rat, FIGS. 15
Protocol: Groups consisting of male Wistar rats 6 weeks of age (n=6 to 8) were intrathecally administered 0.1 to 100 μg/rat of bovine lactoferrin (bLF), 100 μg/rat of recombinant human lactoferrin (rhLF) or 10 μg/rat of morphine (Mor) 30 minutes before formalin was injected into their foot pads. The results are shown in FIGS. 15: the number of the foot-lifting times in the phase 1 pain (left graph) and the number of the foot-lifting times in the phase 2 pain (right graph).

SMILES	response to earlier treatment [1]	inhibition of phase 1 pain (male Wistar rats [2]; FIG. 5)	inhibition of phase 2 pain (male Wistar rats [2]; FIG. 5)	duration of pain inhibiting effect after formalin injection (male Wistar rats [2]; FIGS. 7 and 8)	response to earlier treatment [3]	phase 1 pain (number of foot-lifting times) (male Wistar rats [4])	phase 2 pain (number of foot-lifting times) (male Wistar rats [4])
O=C(O)Cc1ccccc1Nc1c(Cl)cccc1Cl [diclofenac, reference compound]	failed to respond	did not	inhibited the phase 2 pain, but the degree of inhibition was low compared with that by lactoferrin	about 50 minutes	failed to respond	–	–
CC(C)Cc1ccc(C(C)C(=O)O)cc1 (centres unmarked) [ibuprofen]	–	–	–	–	failed to respond	–	–
CN1CC[C@]23c4c5ccc(O)c4O[C@H]2[C@@H](O)C=C[C@H]3[C@H]1C5 [morphine, reference compound]	–	–	–	–	–	inhibits	inhibits
